This note sets out measurements from US9067920B2, “Compounds useful for inhibiting Chk1” (Eli Lilly and Company, priority 2010, dated 2015).

Structures can show the parent of a compound that is named as a salt.

For one test, the system named is HeLa cells. In words: Doxorubicin-induced G2M checkpoint abrogation HeLa cell-based Acumen assay (pHH3). The settings on record: 125 nM doxorubicin, 7 h compound. The procedure:
An inhibitor of Chk1 will disable the G2M DNA damage checkpoint in p53-minus tumor cells treated with the topoisomerase II inhibitor, doxorubicin. A measurement of G2M checkpoint abrogation is the phosphorylation of histone H3 on serine 10 that occurs after cells traverse the G2M checkpoint and enter mitosis. The following high content imaging assay can be used to measure the phosphorylation histone H3 in cells. HeLa cells are cultured in MEM Media supplemented with 10% (v/v) FBS and plated at 2000 cells per well in poly D-lysine coated clear bottom black plates, 100 μL volume per well. Plates are then incubated in a cell culture incubator for 18-24 h (37° C., 5% CO2 and 95% relative humidity), Following the initial incubation, 20 μL of MEM Media plus 10% FBS containing […] doxorubicin are added to the appropriate wells of the plates resulting in a final concentration of 125 nM. The plates are returned to the incubator for 24 h, sufficient to arrest the cells at the G2M checkpoint. The next day the cells are treated 1.0 with compounds. Compounds are solubilized at […] in 100% DMSO and then diluted to a 10× stock starting at 50 μM in MEM plus 4% (v/v) DMSO. Subsequently, serial dilutions of the compounds (1:2) are prepared over a 50 μM to 0.39 μM range. Thirteen μL of compound stock is added to the appropriate wells in the plate to produce a final DMSO concentration of 0.4% and a final compound concentration range between 5 and 0.039 μM. […] Plates are scanned with ACUMEN EXPLORER™ Laser-scanning fluorescence microplate cytometers using 488 nm excitation (TTP LABTECH LTC) to measure pHH3 and DNA content including 2N, and 4N, The pHH3 positive cells are identified by mean intensity at 519 nm from Alexa 488. […] The final readout for each population is determined by normalizing to the % of total cells producing a final assay output of % pHH3, % 2N, and % 4N. 100% activity is then determined by treating cells with the maximum concentration of an inhibitor control compound at 100 nM to determine the final % activity of each compound. […]

Test [1] deals with Calu-6 lung tumor xenograft. Description: Calu-6 tumor xenograft model, subcutaneous administration of Chk1 inhibitor. Format: in vivo, nude mice. The procedure: The ability of Chk1 inhibitors to potentiate tumor killing by DNA damaging agents can be determined in vivo using the Calu-6 lung and HT-29 colon tumor xenograft efficacy models. Calu-6 lung cancer cells are cultured in growth media (MEM with Earle's Balanced Salt Solution with L-glutamine supplemented with 10% (v/v) heat inactivated FBS, 1×MEM non-essential amino acids, 1× sodium pyruvate) and HT-29 colon cancer cells (ATCC) are cultured in growth media, (McCoy's 5A medium supplemented with 10% FBS) and expanded.
Cells are harvested and washed twice with phosphate buffered saline and 5×10^6 cells (HT-29) or 1×10^6 a cells (Calu-6) in growth media (without serum) are mixed with equal volume of BD Matrigel™ matrix, then injected subcutaneously into the flank of nude mice (CD-1 nu/nu).
At about day 16 after implant ([…]), gemcitabine is formulated fresh in saline daily and administered to animals by intraperitoneal route at 60 mg/kg dose. Twenty four hours later animals are administered the compound of Example 3, in 0.2% Tween-80/0.5% methylcellulose subcutaneously BID. After […], dosing is repeated for three additional cycles (Q4Dx4 with the compound of Example 3 offset+24 hours), Tumor growth inhibition (TGI) is calculated as the percent reduction in mean tumor size of a compound treated group from the mean tumor size of the vehicle-treated control group. Compounds within the scope of the invention are tested in this assay run substantially as above.

A word on the EC50: it is the concentration at which the effect is half-maximal. Regarding `COc1nc(C)ccc1-c1cc(Nc2cncc(O[C@@H]3CCCNC3)n2)[nH]n1` [Example 3, (R)-[5-(2-Methoxy-6-methyl-pyridin-3-yl)-2H-pyrazol-3-yl]-[6-(piperidin-3-yloxy)-pyrazin-2-yl]-amine acetic acid salt], the EC50 in the test on HeLa cells (acetic acid salt) is 19 nM. Besides, the “% TGI at day 47” value in test [1] (Calu 6, Example 3 40 mpk subcutaneous BID alone) was −19%. In addition, in test [1] (Calu-6 xenograft, subcutaneous BID, gemcitabine 60 mg/kg ip), the “anti-tumor activity in combination with gemcitabine” value is listed as “excellent dose dependent anti-tumor activity”.

With `COc1nc(C)ccc1-c1cc(Nc2cncc(O[C@@H]3CCCNC3)n2)[nH]n1` [Example 1, (R)-[5-(2-Methoxy-6-methyl-pyridin-3-yl)-2H-pyrazol-3-yl]-[6-(piperidin-3-yloxy)-pyrazin-2-yl]-amine], in the test on HeLa cells (Homo sapiens, HeLa, 7 h), a half-maximal effect (EC50) was put at 29 nM.
